Measured values from patent US12565511B2, “SOS1 inhibitor containing phosphorus” (Chia Tai Tianqing Pharmaceutical Group Co., Ltd., priority 2020, dated 2026).

Key:
[1] = system: H358 human non-small cell lung cancer cells; assay: Inhibition test of in vitro cell level phosphorylation activity (pERK); format: cell-based; conditions: NCI-H358, ERK phosphorylation inhibition, compound 1 h
Description: Test Example 1 Inhibition Test of In Vitro Cell Level Phosphorylation Activity
1.2 Test Method for In Vitro Cell Level Phosphorylation Activity
A dish of H358 human non-small cell lung cancer cells (Nanjing Cobioer Biosciences Co., Ltd.) in logarithmic growth phase and good cell condition were added to a centrifuge tube and centrifuged at 1000 rpm for 5 min in a low speed benchtop centrifuge. The supernatant was discarded, and 5 mL of a plating medium containing 5% FBS was added using a pipette for cell resuspension. The cell suspension was loaded on a cell counter for counting, and diluted with the plating medium to adjust the cell density to 1.5×10^5 cells/mL. The cells were seeded on a black clear-bottom 384-well plate at 40 μL/well using a multi-channel pipette, and cultured overnight in a cell incubator at 37° C., 5% CO2 and saturated humidity. […] The medium was discarded after 1 h, 40 μL, of 4% polyoxymethylene was added to each well, and the plate was incubated for 20 min at room temperature and washed with PBS. […] 20 μL of 5% BSA blocking buffer was added to each well, and the blocking buffer was discarded after the plate was blocked for 1 h at room temperature. 20 μL of the primary antibody mixed solution was added to each well, wherein Rabbit anti-pERK was diluted at 1:1000 (final concentration) and mouse anti-GAPDH was diluted at 1:5000 (final concentration), and the plate was incubated overnight at 4° C. and washed with PBST. 20 μL of the secondary antibody mixed solution was added to each well, wherein goat anti rabbit 800 and goat anti mouse 647 were both diluted at 1:1000 (final concentration), and the plate was incubated in the dark at room temperature for 45 min and washed with PBST.

SOS1cat / KRAS G12C = target: T1, SOS1cat / KRAS G12C (Homo sapiens, UniProt Q07889); assay: Guanine nucleotide exchange test (HTRF); format: biochemical; conditions: SOS1cat-mediated loading of EDA-GTP-DY-647P1 on His-KRAS G12C, 20° C.; read-out: Nucleotide conversion of HTRF IC50
T1 sequence (Q07889 564-1049): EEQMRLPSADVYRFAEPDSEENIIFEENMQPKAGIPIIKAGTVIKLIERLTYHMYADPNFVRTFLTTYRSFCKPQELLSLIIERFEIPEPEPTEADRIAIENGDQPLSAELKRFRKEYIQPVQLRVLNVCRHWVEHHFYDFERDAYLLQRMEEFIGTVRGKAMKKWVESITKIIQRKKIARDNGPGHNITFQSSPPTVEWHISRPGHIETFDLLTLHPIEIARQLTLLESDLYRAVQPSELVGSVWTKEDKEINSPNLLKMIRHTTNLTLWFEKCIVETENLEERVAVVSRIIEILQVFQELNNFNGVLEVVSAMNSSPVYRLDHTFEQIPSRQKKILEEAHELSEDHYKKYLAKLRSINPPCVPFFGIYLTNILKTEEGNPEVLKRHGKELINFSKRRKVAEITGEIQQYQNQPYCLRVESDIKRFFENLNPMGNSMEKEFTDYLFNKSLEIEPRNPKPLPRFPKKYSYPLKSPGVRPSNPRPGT
Description: Test Example 2 Guanine Nucleotide Exchange Test
This test quantitatively investigates the ability of SOS to mediate KRAS activation. KRAS G12C with a His tag was added to the system, anti-His antibody labeled with lanthanide Eu was combined with the system, then auxiliary protein SOS1cat and GTP analogue EDA-GTP-DY-647P1 with fluorophore were added thereto, the GTP analogue with fluorophore was loaded on KRAS G12C with the assistance of the auxiliary protein, and then energy resonance transfer occurred between Anti-6HS-Cryptate (FRET donor) and EDA-GTP-DY-647P1 (FRET acceptor).
However, after pretreatment with SOS1 inhibitor compounds, the ability of SOS1 to bind and mediate KRAS activation was weakened, and the ability of FRET between donor and acceptor was weakened.
Test buffer was prepared with the following components: HEPES pH 7.4: 20 mM; NaCl: 150 mM; MgCl2: 0.5 mM; DTT: 2 mM; BSA: 0.05%; and Igepal: 0.0025%.
KRAS G12C working solution, SOS1cat working solution and blank control solution were prepared with the test buffers; wherein the KRAS G12C working solution contained 100 nM His-KRAS G12C and 2 nM […]; the SOS1cat working solution contained 20 nM SOS1cat and 200 nM EDA-GTP-DY-647P1; and the blank control solution contained 100 nM EDA-GTP-DY-647P1.
The whole test procedures were completed at 20° C.

K562 cells = assay: Assay for proliferation inhibitory activity of K562 cells; format: cell-based; conditions: Homo sapiens, 72 h, CCK-8, read-out: K562 cell proliferation inhibition IC50
Description: Test Example 4 Assay for Proliferation Inhibitory Activity of K562 Cells
The K562 cell line can be purchased from the American Type Culture Collection (ATCC).
The K562 cells in a good growth state were added to a centrifuge tube with the cell density adjusted to 3×10^4/mL, and seeded on a 96-well plate (100 μL/well). The cells were cultured overnight in a cell incubator, the compound was loaded using a nanoliter pipettor to allow the final compound concentration to be 10000 nM to 4.6 nM, 2 replicate wells were set and control was set.

KRAS-G12C/SOS1 = target: T2, KRAS-G12C/SOS1 (Homo sapiens, UniProt Q07889); assay: biochemical
T2 sequence (Q07889 564-1049): T1 sequence (Q07889 564-1049)

## COc1cc2nc(C)nc(N[C@H](C)c3cccc(C(F)F)c3C)c2cc1P1(=O)CCN(C(C)=O)CC1 [Example 12]
[1]
  EC50: 0.103 µM

## COc1cc2nc(C)nc(N[C@H](C)c3cccc(C(F)F)c3C)c2cc1P1(=O)CCN(C(=O)C2CC2)CC1 [Example 14]
[1]
  EC50: 0.108 µM

## COc1cc2nc(C)nc(N[C@H](C)c3cccc(C(C)(F)F)c3F)c2cc1P1(=O)CCN(C(C)=O)CC1 [Example 15]
[1]
  EC50: 0.148 µM

## COc1cc2nc(C)nc(N[C@H](C)c3cccc(C(C)(F)F)c3F)c2cc1P1(=O)CCN(C(=O)C2CC2)CC1 [Example 17]
[1]
  EC50: 0.082 µM

## COc1cc2nc(C)nc(N[C@H](C)c3cc(N)cc(C(F)(F)F)c3C)c2cc1P1(=O)CCN(C(C)=O)CC1 [Example 18]
[1]
  EC50: 0.071 µM

## Cc1nc(N[C@H](C)c2cccc(C(F)F)c2F)c2cc(P3(=O)CCN(S(C)(=O)=O)CC3)ncc2n1 [Example 20]
SOS1cat / KRAS G12C
  IC50: 0.482 µM
K562 cells
  IC50: 0.292 µM
KRAS-G12C/SOS1
  IC50: 0.078 µM

## Cc1nc(N[C@H](C)c2cccc(C(F)F)c2F)c2cc(P3(=O)CCN(S(=O)(=O)C4CC4)CC3)ncc2n1 [Example 21]
SOS1cat / KRAS G12C
  IC50: 0.481 µM
K562 cells
  IC50: 0.187 µM
KRAS-G12C/SOS1
  IC50: 0.058 µM

## Cc1nc(N[C@H](C)c2cccc(C(F)F)c2F)c2cc(P3(=O)CCN(S(C)(=O)=O)CC3)ccc2n1 [Example 27]
SOS1cat / KRAS G12C
  IC50: 0.542 µM
K562 cells
  IC50: 0.469 µM
KRAS-G12C/SOS1
  IC50: 0.061 µM

## Cc1nc(N[C@H](C)c2cccc(C(F)(F)F)c2F)c2cc(P3(=O)CCCCC3)ncc2n1 [Example 42]
SOS1cat / KRAS G12C
  IC50: 0.572 µM
K562 cells
  IC50: 0.562 µM
KRAS-G12C/SOS1
  IC50: 0.081 µM

## Cc1nc(N[C@H](C)c2cccc(C(F)(F)F)c2F)c2cc(P3(=O)CCCC3)ncc2n1 [Example 43]
SOS1cat / KRAS G12C
  IC50: 0.717 µM
K562 cells
  IC50: 1.07 µM
KRAS-G12C/SOS1
  IC50: 0.215 µM

## Cc1nc(N[C@H](C)c2cc(N)cc(C(F)(F)F)c2C)c2cc(P3(=O)CCN(C(=O)C(C)C)CC3)ncc2n1 [Example 58]
SOS1cat / KRAS G12C
  IC50: 0.433 µM
K562 cells
  IC50: 0.031 µM

## Cc1nc(N[C@H](C)c2cc(N)cc(C(F)(F)F)c2C)c2cc(P3(=O)CCN(C(=O)C4(F)CC4)CC3)ncc2n1 [Example 59]
SOS1cat / KRAS G12C
  IC50: 0.448 µM
K562 cells
  IC50: 0.021 µM

## Cc1nc(N[C@H](C)c2cc(N)cc(C(F)(F)F)c2C)c2cc(P3(=O)CCN(C(=O)C(C)(C)F)CC3)ncc2n1 [Example 60]
SOS1cat / KRAS G12C
  IC50: 0.433 µM
K562 cells
  IC50: 0.03 µM

## COc1cc2nc(C)nc(N[C@H](C)c3cc(N)cc(C(F)F)c3)c2cc1P1(=O)CCCCC1 [Example 65]
SOS1cat / KRAS G12C
  IC50: 0.482 µM
K562 cells
  IC50: 0.433 µM
KRAS-G12C/SOS1
  IC50: 0.056 µM
